Key:
[1] = HPLC retention time of cationic lipid in lipid nanoparticles relative to cholesterol; format: physicochemical; settings: HPLC retention time of lipid in LNP (AD-1661 payload) relative to cholesterol; in min (unit assumed)
Procedure: Furthermore, the HPLC retention time for each biodegradable cationic lipid was measured in lipid nanoparticles prepared from them. The lipid nanoparticles were prepared as described in Example 35 using AD-1661 as the payload. The retention times are reported in the table below relative to the retention time for cholesterol.
The HPLC buffer used was a mixture of two solutions (Solution #1 and Solution #2). • Solution #1: 80% methanol/20% 10 mM NH4HCO3 • Solution #2: 80% methanol/20% isopropanol

[2] = Lipid nanoparticle size by dynamic laser light scattering before and after overnight dialysis; format: physicochemical; settings: intensity weighted diameter, LNP with AD-1661; for LNPs Size (nm) change: size after dialysis: after overnight dialysis; for LNPs Size (nm) change: size before dialysis: before overnight dialysis
Procedure: The size of the lipid nanoparticles was measured before and after undergoing dialysis overnight. In general, greater changes in lipid nanoparticle size are indicative of lesser stability.
Dynamic laser light scattering was used to determine the lipid nanoparticle size (expressed as the intensity weighted diameter) with a Zetasizer (Malvern Instruments, Inc. of Westborough, Mass.). All measurements were made at 532 nm wavelength at the scattering angle of 173° using normal resolution mode as the analysis model.

SMILES	t(lipid) − t(chol) [1]	LNPs Size (nm) change: size after dialysis [2]	LNPs Size (nm) change: size before dialysis [2]
CCCCCC(CCCCC)CCOC(=O)CCCCCCCCCC(CCCCCCCCCC(=O)OCCC(CCCCC)CCCCC)OC(=O)CCCN(C)C	3.178		
CCCCCCCC/C=C\COC(=O)CCCCCCCC(CCCCCCCC(=O)OC/C=C\CCCCCCCC)OC(=O)CCCN(C)C	1.44	67 nm	60 nm
CCCCCC(CCCCC)CCOC(=O)CCCCCCCC(CCCCCCCC(=O)OCCC(CCCCC)CCCCC)OC(=O)CCCN(C)C	2.365	56 -> 56 nm	56 -> 56 nm
CC(C)CCC(CCOC(=O)CCCCCCCCCC(CCCCCCCCCC(=O)OCCC(CCC(C)C)C(C)C)OC(=O)CCCN(C)C)C(C)C (stereo not drawn)	2.106		
CN(C)CCCC(=O)OC(CCCCCCCC/C=C\CCCCCCCC(=O)OCC(C)(C)C)CCCCCCCC/C=C\CCCCCCCC(=O)OCC(C)(C)C	2.707		
CC(C)CCC(COC(=O)CCCCCCCCCC(CCCCCCCCCC(=O)OCC(CCC(C)C)C(C)C)OC(=O)CCCN(C)C)C(C)C (stereo not drawn)	1.751	60 nm	59 nm
CCCCCC/C=C\COC(=O)C(C)CCCCCCC(CCCCCCC(C)C(=O)OC/C=C\CCCCCC)OC(=O)CCCN(C)C (stereo not drawn)	0.848	77 nm	73 nm
CCCCCCCCCC/C=C\COC(=O)CCCCCCCC(CCCCCCCC(=O)OC/C=C\CCCCCCCCCC)OC(=O)CCCN(C)C	2.219	67 nm	68 nm
